{"source": "patent US11266715B2", "about": "“C3A receptor agonists for use against ischemic brain injury, stroke, traumatic brain injury, spinal cord injury and neurodegenerative disorders” (priority 2016, dated 2022)", "test_system": "GFAP", "assay": "GFAP immunoreactivity in dorsal hippocampus after neonatal HI", "type": "in vivo, mouse", "conditions": "P55, 3 days treatment after HI", "description": "On P51 (long-term study) or P55 (short-term study), mice were deeply anesthetized with thiopental [Pentothal Sodium (0.01 ml/g body weight), Hospira, Ill., USA)] and transcardially perfused with 0.9% saline, followed by 4% paraformaldehyde (PFA) in 0.1 M PBS. Brains were removed and post-fixed in 4% PFA at 4° C. for 24 h followed by 70% ethanol for 24 h. Tissue was processed using an automatic tissue processor (SAKURA Tissue Tek VIP 3000, Tournai, Belgium) and embedded in paraffin. Brains were cut at room temperature into 8-μm serial coronal sections using a sliding microtome (Microm HM 450, Thermo Scientific, Massachusetts, USA), attached to silane coated slides and dried at RT. […]\nNeuN positive cells, GFAP positive relative area, as well as GAP-43, SYN, and VGLUT1 positive puncta were counted by using MetaMorph software (ver. 7.8.6, Molecular Devices, CA, USA) on confocal images obtained with a 20× (NeuN and GFAP) or 63× (GAP-43, SYN, and VGLUT1) objective (Carl Zeiss LSM 700 Laser Scanning Microscope, Jena, Germany). Iba-1 positive cell somata were counted on bright field images obtained with a 20× objective (Nikon Eclipse 80i). […]"}
{"substance": "C3a: Purified human C3a peptide (Complement Technologies), C3a receptor agonist, amino acid sequence SEQ ID NO: 1", "values": [{"measurement": "GFAP relative area in CA1 and DG", "value": "did not differ between the hemispheres or in comparison with sham mice"}]}
